Measured values as given in US8076101B2, “Method of detecting the cystic fibrosis transmembrane conductance regulator (CFTR) at cell exterior” (priority 2003, dated 2011).
Entries after “also recorded” stand apart in the source; their conditions may differ. Residues, ends and D or L forms follow the SMILES beside them. *: point of attachment. Cbz = O=C(OCc1ccccc1)*

Tests used:
Assay type in all cases: cell-based
[1] = tested on: Extope-ΔF508 CFTR; assay: Immunofluorescence microscopy of externally labeled Extope-ΔF508 CFTR after re-incubation with protease inhibitors; conditions: re-incubated at 37° C. for 7 hours
Description: FIG. 10B. […] Cell surface Extope-CFTR or Extope-ΔF508 CFTR were labeled with 16B12 as described in FIG. 2A. Cells were re-incubated at 37° C. for 7 hours with either lysosomal inhibitors pepstatin-A and leupeptin (Pep+Leu, each 50 μg/ml) and E64 (3.5 μg/ml) or proteasomal inhibitors lactacystin (50 μM) and MG132 (50 μM) or without drug (control) and stained for immunofluorescence microscopy. Nuclei were stained with propidium iodide.
Cells were treated with lysosomal inhibitors pepstatin-A and leupeptin as described in FIG. 5B. Extope-ΔF508 CFTR was labeled with 16B12 at the cell surface and detected 7 hours later using goat anti-mouse IgG Alexa Fluor 488 conjugate. Lysosomes were labeled with Lysotracker Red (Molecular Probes).

[2] = tested on: Extope-CFTR and ΔF508 CFTR; assay: Chemiluminescence assay of cell surface Extope-CFTR and ΔF508 CFTR retained after reincubation; conditions: lactacystin 25 μM, reincubated for indicated times, 8 replicates
Description: FIG. 10D. […] Extope-CFTR and ΔF508 CFTR were labeled on intact pre-cooled cells on ice for 30 minutes with 16B12 mAb and cells were reincubated in the presence or absence of lactacystin (25 μM) for indicated times. Cell surface Extope-CFTR was detected in a chemiluminescence assay at indicated times using sheep anti-mouse peroxidase conjugate and chemiluminescence. Each experiment was performed with 8 replicates and standard deviations are indicated.

[3] = tested on: ΔF508 CFTR with modified EL2 (XT-ΔF508); assay: Quantitative luminescence detection of XT-ΔF508 CFTR at surface of cells in 96 well microtiter plates
Description: FIG. 6. Quantitative detection of CFTR with EL2 epitope (XT-CFTR) at surface of cells grown in 96 well microtiter plates. Cells were washed, fixed and exposed to an antibody recognizing the external epitope, washed again and incubated with a horseradish peroxidase coupled second antibody and then with a peroxidase substrate that becomes luminescent after peroxidation. Luminescent signals in each well were quantitated in either a Packard Microplate Luminescence Counter or a Perkin Elmer VICTOR^2 Multilabel Counter. […] The corresponding quantitative signals are shown below.
To provide a more facile and quantifiable means of detecting EL2 modified CFTR on the cell surface, cells were plated on 96-well microtiter plates. The amount of surface epitope was measured either by luminometry or time resolved fluorescence. After incubation with a primary unlabeled mouse antibody to the epitope (HA11, Babco) and washing, a secondary horseradish peroxidase coupled antibody recognizing mouse IgG was added followed by peroxidase substrate that luminesces when peroxidized. Luminescence was measured in each well in one of two different luminescence plate readers. A strong signal is obtained in the replicate row of wild-type XT-CFTR expressing cells and signals of strengthening intensity are obtained in rows of XT-ΔF508 cells grown at 28° C. with increasing concentrations of butyrate.

[4] = tested on: XT-ΔF508 CFTR; assay: cyclic AMP stimulated 36Cl efflux (CFTR chloride channel activity); conditions: grown at 28° C. with 2 mM sodium butyrate for 48 h; forskolin (10 μM) and IBMX (1 mM)
Description: FIG. 5. CFTR chloride channel activity as monitored by ^36Cl efflux from cells expressing wild-type CFTR (◯), ΔF508 CFTR without (♦) or with (▴) 2 mM sodium butyrate or no CFTR (□). Cells were preloaded with ^36Cl and then exposed to forskolin (10 μM) and IBMX (1 mM) at time 0. The amounts of ^36Cl radioactivity released from the cells in subsequent 1 min intervals was monitored by scintillation counting.
To determine the functional capability of the EL2 modified variants, rates of cyclic AMP stimulated ^36Cl efflux from cells expressing them were measured. The rate of efflux from cells expressing wild-type XT-CFTR was similar to that with unmodified wild-type (FIG. 5).

Question: For `CC(C)C[C@H](NC(=O)[C@H]1O[C@@H]1C(=O)O)C(=O)NCCCCN=C(N)N` [E64], which “endocytic turn over of ΔF508-CFTR” value ([1]; 3.5 μg/ml) is on record?
Answer: inhibit endocytic turn over

Question: For `CC(C)C[C@@H](C=O)NC(=O)[C@H](CC(C)C)NC(=O)[C@H](CC(C)C)NC(=O)OCc1ccccc1` [MG132] (Cbz-Leu-Leu-Leu-aldehyde), which “endocytic turn over of ΔF508-CFTR” value ([1]; 50 μM) is on record?
Answer: inhibit endocytic turn over

Question: With `CC(=O)N[C@@H](CSC(=O)[C@]1([C@@H](O)C(C)C)NC(=O)[C@H](C)[C@@H]1O)C(=O)O` [lactacystin] as the compound, how does the “endocytic turn over of ΔF508-CFTR” value ([1]; 50 μM) read?
Answer: inhibit endocytic turn over

Question: And the “amount of CFTR retained at the cellular surface” value [2]?
Answer: increases the amount of CFTR retained at the cellular surface

Question: With `CCCC(=O)[O-].[Na+]` [sodium butyrate] as the compound, how does the “amount of ΔF508 CFTR with modified EL2 detected at the cell surface (luminescent signal)” value ([3]; cells grown at 28° C. for 24 h, increasing concentrations of sodium butyrate) read?
Answer: Increasing amounts

Question: And the “XT-ΔF508 surface luminescence signal relative to wild-type XT-CFTR” value ([3]; cells grown at 28° C., maximal butyrate dose)?
Answer: more than half that of the wild-type

Question: And the “36Cl efflux from ΔF508 CFTR expressing cells relative to wild-type” value [4]?
Answer: more closely approaches those of wild-type; also recorded: nearly as great as from cells expressing wild-type CFTR
